Assay results reported in ChEMBL document CHEMBL5233269, “Anticancer potential of spirocompounds in medicinal chemistry: A pentennial expedition” (Eur J Med Chem, 2021).
pIC50: −log10 of the molar value.

Key:
K562 = assay: Anticancer activity against human K562 cells; assay type: functional, cell-based
HepG2 [1] = assay: Anticancer activity against human HepG2 cells assessed as inhibition of cell viability; assay type: functional, cell-based
PC-3 [2] = assay: Anticancer activity against human PC-3 cells assessed as inhibition of cell growth; assay type: functional, cell-based
HCT-116 [3] = assay: Anticancer activity against human HCT-116 cells assessed as inhibition of cell growth; assay type: functional, cell-based
MDA-MB-435 = assay: Growth inhibition of human MDA-MB-435 cells by SRB assay; assay type: functional
MCF7 [4] = assay: Growth inhibition of human MCF7 cells by SRB assay; assay type: functional
MCF7 [5] = assay: Cytotoxicity against human MCF7 cells incubated for 48 hrs by SRB assay relative to control; assay type: functional; parameters: concentration or dose not given beside the values
HepG2 [6] = assay: Cytotoxicity against human HepG2 cells incubated for 48 hrs by SRB assay relative to control; assay type: functional; parameters: concentration or dose not given beside the values
[7] = Cytotoxicity against human HBF4 cells incubated for 48 hrs by SRB assay relative to control; assay type: toxicity, cell-based; parameters: concentration or dose not given beside the values; conditions: hbf4, 48 h
A549 [8] = assay: Cytotoxicity against human A549 cells assessed as inhibition of tumor cell proliferation incubated for 72 hrs by MTT assay; assay type: functional, cell-based; conditions: A549, 72 h
MCF7 [9] = assay: Anticancer activity against human MCF7 cells assessed as reduction in cell viability incubated for 48 hrs by MTT assay; assay type: functional, cell-based; conditions: MCF7, 48 h
B16-F10 = assay: Anticancer activity against mouse B16-F10 cells incubated for 48 hrs by MTT assay; assay type: functional, cell-based; conditions: B16-F10, 48 h
A549 [10] = assay: Anticancer activity against human A549 cells assessed as reduction in cell viability incubated for 48 hrs by MTT assay; assay type: functional, cell-based; conditions: A549, 48 h
MCF7 [11] = assay: Anticancer activity against human MCF7 cells assessed as inhibition of cell viability; assay type: functional, cell-based
HepG2 [12] = assay: Anticancer activity against human HepG2 cells; assay type: functional, cell-based
HeLa = assay: Anticancer activity against human HeLa cells; assay type: functional, cell-based
A549 [13] = assay: Anticancer activity against human A549 cells assessed as inhibition of cell proliferation; assay type: functional, cell-based
DU-145 = assay: Anticancer activity against human DU-145 cells; assay type: functional, cell-based
MCF7 [14] = assay: Anticancer activity against human MCF7 cells; assay type: functional, cell-based
[15] = biological target: T1, Amine oxidase [flavin-containing] A (Rattus norvegicus, UniProt P21396); assay: Inhibition of rat brain MAO-A relative to control; assay type: tissue-based
T1 sequence (P21396 whole entry): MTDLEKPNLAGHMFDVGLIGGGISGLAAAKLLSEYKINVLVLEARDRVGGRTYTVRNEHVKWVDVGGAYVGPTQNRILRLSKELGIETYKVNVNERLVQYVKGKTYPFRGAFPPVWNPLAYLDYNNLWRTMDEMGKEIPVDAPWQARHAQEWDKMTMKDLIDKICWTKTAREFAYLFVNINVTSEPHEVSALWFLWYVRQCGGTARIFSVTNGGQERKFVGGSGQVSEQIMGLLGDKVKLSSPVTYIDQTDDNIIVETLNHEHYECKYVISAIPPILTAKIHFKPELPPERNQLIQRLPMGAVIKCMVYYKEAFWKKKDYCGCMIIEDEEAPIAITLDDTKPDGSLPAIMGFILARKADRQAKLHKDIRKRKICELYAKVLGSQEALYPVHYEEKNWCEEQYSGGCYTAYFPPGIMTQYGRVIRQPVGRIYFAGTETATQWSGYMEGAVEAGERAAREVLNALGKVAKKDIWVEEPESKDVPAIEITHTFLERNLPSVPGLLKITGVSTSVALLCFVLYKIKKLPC

A549 [16] = assay: Cytotoxicity against human A549 cells; assay type: functional, cell-based
SW-620 = assay: Cytotoxicity against human SW620 cells; assay type: functional, cell-based
HCT-116 [17] = assay: Cytotoxicity against human HCT-116 cells; assay type: functional, cell-based
PC-3 [18] = assay: Cytotoxicity against human PC-3 cells; assay type: functional, cell-based

**Q.** With `CN1C(=O)[C@@]2(c3cccc(Cl)c31)[C@H](O)c1ccccc1[C@@H]2[C@]1(CN2CCCCC2)C(=O)N(C)c2c(Cl)cccc21` as the compound, how does the pIC50 (K562) read?
**A.** The pIC50 was 4.48.

**Q.** What does the source list for `CC(=O)OC[C@H]1OC(Sc2nc(-c3ccc(C)o3)c3c(n2)N(c2ccc(F)cc2)C2(CCCCC2)S3)[C@H](OC(C)=O)[C@@H](OC(C)=O)[C@@H]1OC(C)=O` (stereo partly drawn)?
**A.** pIC50 (HepG2 [1]): 6.87; pIC50 (PC-3 [2]): 6.65; pIC50 (HCT-116 [3]): 6.92

**Q.** For `N#CC1=C(N)OC2=C(C(=O)c3ccccc32)C12C(=O)Nc1ccc(I)cc12` (stereo not drawn), which GI50 (MDA-MB-435) is on record?
**A.** The GI50 was over 100 µM.

**Q.** And the GI50 (MCF7 [4])?
**A.** Its GI50 is 62 µM.

**Q.** With `CC1(C)CC(=O)C2=C(C1)N(c1ccccc1)C(N)=C(C#N)C21C(=O)Nc2ccccc21` (stereo not drawn) as the compound, how does the Activity (MCF7 [5]) read?
**A.** Its Activity is 76%.

**Q.** What about the Activity (HepG2 [6]) of the same compound?
**A.** The Activity was 39%.

**Q.** What about the Activity [7] of the same compound?
**A.** Its Activity is 23%.

**Q.** Which GI50 (MDA-MB-435) does the source give for `N#CC1=C(N)OC2=C(C(=O)c3ccccc32)C12C(=O)Nc1ccc(Br)cc12` (stereo not drawn) here?
**A.** Its GI50 is 1.8 µM.

**Q.** And the GI50 (MCF7 [4])?
**A.** The GI50 was over 100 µM.

**Q.** With `CCN1C(=O)[C@@]2(c3cccc(Cl)c31)[C@H](O)c1ccccc1[C@@H]2[C@]1(CN2CCCC2)C(=O)N(CC)c2c(Cl)cccc21` as the compound, how does the pIC50 (K562) read?
**A.** The pIC50 was 5.06.

**Q.** With `C[C@]12CC[C@H](O)CC1=CCC1C2CC[C@@]2(C)C1CC[C@@H]2C1=CC2(C(=O)Nc3ccc(Cl)cc32)C(C#N)=C(N)N1` (stereo partly drawn) as the compound, how does the pIC50 (A549 [8]) read?
**A.** The pIC50 was 4.94.

**Q.** Which results are given for `COC1=CC2(C=C(C(=O)Oc3cccc(F)c3F)c3cc(OC)cc(OC)c32)C(OC)=CC1=O` (stereo not drawn)?
**A.** pIC50 (MCF7 [9]): 4.88; pIC50 (B16-F10): 4.96; pIC50 (A549 [10]): 5.02

**Q.** With `CCN1C(=O)[C@@]2(c3cccc(C)c31)[C@H](O)c1ccccc1[C@@H]2[C@]1(CN2CCCC2)C(=O)N(CC)c2c(C)cccc21` as the compound, how does the pIC50 (K562) read?
**A.** Its pIC50 is 4.67.

**Q.** Which Activity (MCF7 [5]) does the source give for `CCOC(=O)C1=C2N=C(N)C3=C(SC4CCCCC34)N2C2=C(C(=O)CC(C)(C)C2)C12C(=O)Nc1ccccc12` (stereo not drawn) here?
**A.** Its Activity is 80%.

**Q.** And the Activity (HepG2 [6])?
**A.** Its Activity is 25%.

**Q.** What about the Activity [7] of the same compound?
**A.** Its Activity is 17%.

**Q.** With `Cc1ccc2c(c1)C1(C(=O)N2)C(C#N)=C(N)NC2=C1CCCC2` (stereo not drawn) as the compound, how does the pIC50 (MCF7 [11]) read?
**A.** The pIC50 was 4.55.

**Q.** And the pIC50 (HepG2 [12])?
**A.** The pIC50 was 4.44.

**Q.** With `O=C1OCC2Nc3ccccc3NC3(C(=O)N(Cc4ccccc4)c4ccccc43)C12` (stereo not drawn) as the compound, how does the pIC50 (HeLa) read?
**A.** The pIC50 was 5.64.

**Q.** And the pIC50 (A549 [13])?
**A.** The pIC50 was 5.87.

**Q.** And the pIC50 (DU-145)?
**A.** The pIC50 was 5.94.

**Q.** What about the pIC50 (MCF7 [14]) of the same compound?
**A.** The pIC50 was 5.65.

**Q.** With `O=C1OCC2Nc3ccc(Cl)cc3NC3(C(=O)Nc4ccccc43)C12` (stereo not drawn) as the compound, how does the pIC50 (HeLa) read?
**A.** Its pIC50 is 5.27.

**Q.** What about the pIC50 (A549 [13]) of the same compound?
**A.** The pIC50 was 5.53.

**Q.** And the pIC50 (DU-145)?
**A.** The pIC50 was 5.77.

**Q.** What about the pIC50 (MCF7 [14]) of the same compound?
**A.** The pIC50 was 5.02.

**Q.** For `CCn1c(=S)[nH]c2c(c1=O)C1(CCCCC1)Cc1ccccc1-2`, which “inhibition (INH)” value [15] is on record?
**A.** Its value is 58%.

**Q.** With `CC(=O)OC[C@H]1OC(Sc2nnc(/N=C3\CSC4(CCCCC4)N3c3ccc(F)cc3)s2)[C@H](OC(C)=O)[C@@H](OC(C)=O)[C@@H]1OC(C)=O` (stereo partly drawn) as the compound, how does the pIC50 (HepG2 [1]) read?
**A.** Its pIC50 is 6.75.

**Q.** And the pIC50 (PC-3 [2])?
**A.** Its pIC50 is 6.92.

**Q.** What about the pIC50 (HCT-116 [3]) of the same compound?
**A.** The pIC50 was 7.04.

**Q.** What does the source list for `Cc1ccc2c(c1)C1(Nc3ccccc3NC3COC(=O)C31)C(=O)N2` (stereo not drawn)?
**A.** pIC50 (HeLa): 5.02; pIC50 (A549 [13]): 5.81; pIC50 (DU-145): 5.87; pIC50 (MCF7 [14]): 5.67

**Q.** For `CCn1c(SCC(=O)Nc2ccccc2Cl)nc2c(c1=O)C1(CCCCC1)Cc1ccccc1-2`, which “inhibition (INH)” value [15] is on record?
**A.** The value was 66%.

**Q.** Which results are given for `O=C1OCC2Nc3ccccc3NC3(C(=O)N(Cc4ccccc4)c4ccc(Br)cc43)C12` (stereo not drawn)?
**A.** pIC50 (HeLa): 4.92; pIC50 (A549 [13]): 5.42; pIC50 (DU-145): 5.50; pIC50 (MCF7 [14]): 5.63

**Q.** For `CCn1c(SC)nc2c(c1=O)C1(CCCCC1)Cc1ccccc1-2`, which “inhibition (INH)” value [15] is on record?
**A.** Its value is 66%.

**Q.** With `COC1=CC2(C=C(C(=O)NNc3ccc(F)c(F)c3)c3cc(OC)cc(OC)c32)C(OC)=CC1=O` (stereo not drawn) as the compound, how does the pIC50 (MCF7 [9]) read?
**A.** Its pIC50 is 4.81.

**Q.** What about the pIC50 (B16-F10) of the same compound?
**A.** Its pIC50 is 4.68.

**Q.** And the pIC50 (A549 [10])?
**A.** The pIC50 was 4.69.

**Q.** With `CCC(=O)N1CC2C(=O)Oc3ccccc3C2C12C(=O)Nc1cc(Cl)ccc12` (stereo not drawn) as the compound, how does the pIC50 (A549 [16]) read?
**A.** Its pIC50 is under 4.30.

**Q.** And the pIC50 (SW-620)?
**A.** Its pIC50 is over 7.10.

**Q.** And the pIC50 (HCT-116 [17])?
**A.** Its pIC50 is under 4.30.

**Q.** And the pIC50 (PC-3 [18])?
**A.** The pIC50 was under 4.30.

**Q.** With `CC1CCC2(CC1)SC/C(=N\c1nnc(SC3OC[C@@H](O)[C@H](O)[C@H]3O)s1)N2c1ccc(F)cc1` (stereo partly drawn) as the compound, how does the pIC50 (HepG2 [1]) read?
**A.** The pIC50 was 6.22.

**Q.** What about the pIC50 (PC-3 [2]) of the same compound?
**A.** Its pIC50 is 5.02.

**Q.** And the pIC50 (HCT-116 [3])?
**A.** Its pIC50 is 6.97.

**Q.** With `CC1CCC2(CC1)SC/C(=N\c1nnc(SC3O[C@H](CO)[C@@H](O)[C@H](O)[C@H]3O)s1)N2c1ccc(F)cc1` (stereo partly drawn) as the compound, how does the pIC50 (HepG2 [1]) read?
**A.** The pIC50 was 6.48.

**Q.** And the pIC50 (PC-3 [2])?
**A.** The pIC50 was 6.95.

**Q.** And the pIC50 (HCT-116 [3])?
**A.** Its pIC50 is 6.97.

**Q.** With `CN1C(=O)[C@@]2(c3cccc(Cl)c31)[C@H](O)c1ccccc1[C@@H]2[C@]1(CN2CCCC2)C(=O)N(C)c2c(Cl)cccc21` as the compound, how does the pIC50 (K562) read?
**A.** Its pIC50 is 4.68.
